Experiment: xn = mol fraction of the nth substance listed
Conditions: Liquid; for viscosity: Capillary tube (Ostwald / Ubbelohde) method; for mass density: Siemens Coriolis flowmeter

CCCCCCCCCC(=O)OC [methyl decanoate] + CCCCCCC
Conditions | mass density, 298.15 K [kg/m3] | mass density, 308.15 K [kg/m3] | mass density, 318.15 K [kg/m3] | viscosity, 298.15 K [mPa·s] | viscosity, 308.15 K [mPa·s] | viscosity, 318.15 K [mPa·s]
100 kPa, x1 = 0.101 | 706 | 698 | 689 | 0.465 | 0.394 | 0.339
100 kPa, x1 = 0.202 | 730 | 722 | 713 | 0.549 | 0.454 | 0.375
100 kPa, x1 = 0.299 | 753 | 744 | 736 | 0.655 | 0.52 | 0.418
100 kPa, x1 = 0.403 | 773 | 765 | 757 | 0.779 | 0.613 | 0.486
100 kPa, x1 = 0.501 | 792 | 784 | 776 | 0.912 | 0.716 | 0.565
100 kPa, x1 = 0.601 | 810 | 801 | 793 | 1.071 | 0.843 | 0.669
100 kPa, x1 = 0.698 | 826 | 818 | 809 | 1.257 | 0.999 | 0.8
100 kPa, x1 = 0.799 | 841 | 833 | 825 | 1.461 | 1.173 | 0.951
100 kPa, x1 = 0.902 | 855 | 847 | 839 | 1.67 | 1.351 | 1.104
100 kPa, x1 = 1 | 868 | 860 | 853 | 1.934 | 1.628 | 1.38
3000 kPa, x1 = 0.101 | 709 | 700 | 692 | 0.483 | 0.411 | 0.355
3000 kPa, x1 = 0.202 | 734 | 724 | 717 | 0.575 | 0.475 | 0.394
3000 kPa, x1 = 0.299 | 756 | 747 | 739 | 0.686 | 0.547 | 0.441
3000 kPa, x1 = 0.403 | 776 | 767 | 760 | 0.815 | 0.644 | 0.514
3000 kPa, x1 = 0.501 | 795 | 786 | 778 | 0.955 | 0.752 | 0.597
3000 kPa, x1 = 0.601 | 812 | 804 | 796 | 1.119 | 0.885 | 0.704
3000 kPa, x1 = 0.698 | 828 | 820 | 812 | 1.31 | 1.045 | 0.84
3000 kPa, x1 = 0.799 | 843 | 835 | 827 | 1.52 | 1.224 | 0.995
3000 kPa, x1 = 0.902 | 857 | 849 | 841 | 1.735 | 1.407 | 1.152
3000 kPa, x1 = 1 | 870 | – | 854 | 1.992 | – | 1.417
3010 kPa, x1 = 1 | – | 862 | – | – | 1.675 | –
6000 kPa, x1 = 0.101 | 712 | 703 | 696 | 0.502 | 0.428 | 0.371
6000 kPa, x1 = 0.202 | 736 | 727 | 720 | 0.599 | 0.496 | 0.414
6000 kPa, x1 = 0.299 | 758 | 750 | 742 | 0.717 | 0.574 | 0.465
6000 kPa, x1 = 0.403 | 779 | 770 | 763 | 0.851 | 0.676 | 0.541
6000 kPa, x1 = 0.501 | 798 | 789 | 781 | 0.996 | 0.789 | 0.629
6000 kPa, x1 = 0.601 | 815 | 806 | 799 | 1.166 | 0.926 | 0.74
6000 kPa, x1 = 0.698 | 831 | 822 | 815 | 1.364 | 1.091 | 0.88
6000 kPa, x1 = 0.799 | 846 | 837 | 830 | 1.58 | 1.276 | 1.039
6000 kPa, x1 = 0.902 | 859 | 851 | 843 | 1.8 | 1.463 | 1.199
6000 kPa, x1 = 1 | 872 | 864 | 856 | 2.058 | 1.727 | 1.462
9000 kPa, x1 = 0.101 | 715 | 706 | 699 | 0.519 | 0.446 | 0.386
9000 kPa, x1 = 0.202 | 739 | 730 | 723 | 0.623 | 0.518 | 0.433
9000 kPa, x1 = 0.299 | 761 | 752 | 745 | 0.746 | 0.6 | 0.489
9000 kPa, x1 = 0.403 | 781 | 773 | 765 | 0.886 | 0.707 | 0.569
9000 kPa, x1 = 0.501 | 800 | 792 | 784 | 1.038 | 0.825 | 0.661
9000 kPa, x1 = 0.601 | 817 | 809 | 801 | 1.214 | 0.967 | 0.776
9000 kPa, x1 = 0.698 | 833 | 825 | 817 | 1.417 | 1.138 | 0.919
9000 kPa, x1 = 0.799 | 848 | 840 | 832 | 1.639 | 1.327 | 1.083
9000 kPa, x1 = 0.902 | 861 | 853 | 846 | 1.865 | 1.519 | 1.247
9000 kPa, x1 = 1 | 874 | 866 | 859 | 2.123 | 1.779 | 1.491
12000 kPa, x1 = 0.101 | 718 | 709 | 702 | 0.537 | 0.463 | 0.402
12000 kPa, x1 = 0.202 | 742 | 733 | 726 | 0.647 | 0.539 | 0.452
12000 kPa, x1 = 0.299 | 764 | 755 | 748 | 0.776 | 0.626 | 0.512
12000 kPa, x1 = 0.403 | 784 | 775 | 768 | 0.922 | 0.739 | 0.596
12000 kPa, x1 = 0.501 | 802 | 794 | 787 | 1.079 | 0.862 | 0.692
12000 kPa, x1 = 0.601 | 819 | 811 | 804 | 1.261 | 1.009 | 0.812
12000 kPa, x1 = 0.698 | 835 | 827 | 820 | 1.471 | 1.184 | 0.959
12000 kPa, x1 = 0.799 | 850 | 842 | 834 | 1.698 | 1.378 | 1.126
12000 kPa, x1 = 0.902 | 863 | 856 | 848 | 1.93 | 1.575 | 1.295
12000 kPa, x1 = 1 | 877 | 869 | 861 | 2.209 | 1.835 | 1.534
15000 kPa, x1 = 0.101 | 720 | 712 | 705 | 0.555 | 0.48 | 0.418
15000 kPa, x1 = 0.202 | 744 | 736 | 729 | 0.671 | 0.561 | 0.472
15000 kPa, x1 = 0.299 | 766 | 758 | 751 | 0.806 | 0.653 | 0.536
15000 kPa, x1 = 0.403 | 786 | 778 | 771 | 0.958 | 0.771 | 0.624
15000 kPa, x1 = 0.501 | 805 | 797 | 789 | 1.121 | 0.898 | 0.724
15000 kPa, x1 = 0.601 | 822 | 814 | 806 | 1.308 | 1.051 | 0.847
15000 kPa, x1 = 0.698 | 837 | 829 | 822 | 1.524 | 1.23 | 0.998
15000 kPa, x1 = 0.799 | 852 | 844 | 837 | 1.757 | 1.429 | 1.17
15000 kPa, x1 = 0.902 | 865 | 858 | 850 | 1.995 | 1.631 | 1.343
15000 kPa, x1 = 1 | 878 | 871 | 863 | 2.272 | 1.888 | 1.578

Reference: the NIST ThermoML archive (doi:10.1016/j.tca.2018.10.018)
